Data as given in US12622886B2, “Compositions comprising amino acids for prevention and/or treatment of cancer” (Professional Dietetics S.p.A., priority 2020, dated 2026).

Tested on: MCF7 breast cancer cells
Test: MCF7 proliferation (acid phosphatase assay and Trypan blue exclusion)
Format: cell-based, human
Conditions: 1% α5 for 48 h and 1 μM DOX for 16 h
Description: MCF-7 cells were cultured in DMEM as above and treated with 1% α5 composition for 48 h and 1 μM doxorubicin (DOX; Sigma-Aldrich, Milan, Italy) for 16 h (FIG. 7).
To quantify MCF7 cell growth, acid phosphatase assay was used as described [Yang T T et al. 1996 Anal Biochem. 241(1):103-8]. Briefly, MCF7 cells were placed in 96-well plates at 5,000 to 20,000 cells per well density and treated with 1% α5 (for 48 h) and 1 μM DOX (for 16 h). Culture medium was removed and each well washed once with phosphate-buffered saline (PBS, pH 7.2), and added with 100 μl buffer containing 0.1 M sodium acetate (pH 5.0), 0.1% Triton X-100, and 5 mM p-nitrophenyl phosphate (pNPP). Then, plates were placed in a 37° C. incubator for 2 h. The reaction was stopped with the addition of 10 μl 1 N NaOH, and color development was assessed at 405 nm. Non-enzymatic pNPP hydrolysis was measured in wells without cells.

With `COc1cccc2c1C(=O)c1c(O)c3c(c(O)c1C2=O)C[C@@](O)(C(=O)CO)C[C@@H]3O[C@H]1C[C@H](N)[C@H](O)[C@H](C)O1` [DOX, doxorubicin] the “anti-proliferative effect of DOX together with the α5 composition” value was “completely unaffected”.
